The nature of the data set: Stability of redox conjugation product-sulfimide. It counts as physicochemical. The note with it: salt form formed from S3 under strong acidic condition (1 N HCl); co-solvent d-MeOD/D2O=1:1; monitored by NMR after 1 h and 18 h. As for the experimental part: The stability of sulfimides were tested by treatment of sulfimides S2 with 5 mM TCEP or treatment of sulfimides S3 with 1 N HCl, 1 N NaOH or 80° C. in co-solvent (d-MeOD/D2O=1:1). The reactions were monitored by NMR after 1 h and 18 h and the reaction conversions were calculated based on NMR data. Sulfimide S3 can be protonated under strong acidic condition to its salt form S4, which is stable in aqueous solution.

This is an account of results in patent US11155530B2, “Urea-oxaziridines” (The Regents of the University of California, priority 2018, dated 2021).

Molecules are shown by their SMILES.

Consider `CCNC(=O)N[S+](C)c1ccccc1.[Cl-]` (stereo not shown) [Compound S4], for which the “stability in aqueous solution” value is on record as “stable”.
